# Where a name gives a salt, the structure may show the parent alone.
# Target: T1, human Y4 receptor (Homo sapiens, UniProt P50391)
# T1 construct: expressed in transfected cells
# Test: NPY4 cAMP HTRF Agonist Assay (inhibitory cAMP assay, Gi activation by Y4 agonism)
# Format: cell-based
# Conditions: TABLE 2, R2 is Phenyl-CN; read-out: hY4 CAMP EC50
# Procedure: NPY4 cAMP HTRF Agonist Assay
# The functionality of the compound at Y4 receptor was analyzed using a inhibitory cAMP assay (CISBIO, HTRF cAMP kit #62AM4PEC) to measure the Gi activation by Y4 agonism.
# The human Y4 stable CHO clonal cells were maintained in culture medium (F-12 containing 10% Fetal Bovine Serum, […] GENETICIN®, […] Zeocin). Before the experiment, 5 μL of 1 uM Forskolin (Sigma, # F6886) and 100 uM IBMX (Sigma, # I5879) in PBS buffer were added into 384-well plates (PE, Proxi-plate) that were pre-dotted with 100 nL compounds. The cells were removed from the flasks by Cellstripper, counted and adjusted to 1.0×10^6 cells/mL in PBS buffer, and added 5 μL/well (5000 cells/well) into the above 384-well plates. The cells were then covered and incubated for 30 minutes at room temperature. After incubation, 5 μL/well of D2-conjugate in HTRF lysis buffer was first added, followed by adding 5 μL/well of anti-cAMP Cryptate in HTRF lysis buffer. The plates were incubated for another 1 hour at room temperature and read on the EnVision Multilabel Plate Reader.
# Compounds described herein were tested in the above assay.
# T1 sequence (P50391 whole entry): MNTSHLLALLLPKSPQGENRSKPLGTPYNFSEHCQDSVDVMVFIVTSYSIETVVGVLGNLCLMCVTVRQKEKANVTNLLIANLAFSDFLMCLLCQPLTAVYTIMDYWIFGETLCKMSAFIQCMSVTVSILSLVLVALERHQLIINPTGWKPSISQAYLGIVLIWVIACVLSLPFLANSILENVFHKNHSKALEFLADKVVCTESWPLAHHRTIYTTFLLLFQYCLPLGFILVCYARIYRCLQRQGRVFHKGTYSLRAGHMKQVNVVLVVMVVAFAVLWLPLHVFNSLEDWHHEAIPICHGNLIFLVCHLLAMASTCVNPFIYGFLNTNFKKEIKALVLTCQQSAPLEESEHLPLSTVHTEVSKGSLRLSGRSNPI
row,EC50,SMILES
1,231 nM,N#Cc1ccc(N2CCC[C@H](N[C@@H]3CCCC[C@H]3Nc3cc(-n4cncn4)ccn3)C2)cc1 [Example 208]
2,1 nM,N#Cc1ccc(N2C[C@@H]3C[C@H](N[C@@H]4CCCC[C@H]4Nc4cc(-c5cccc(O)c5)ccn4)[C@H]2C3)cc1 [Example 228]
3,272 nM,N#Cc1ccc(N2C[C@@H]3C[C@H](N[C@@H]4CCCC[C@H]4Nc4ncc(-c5ccc(C(N)=O)cc5)o4)[C@H]2C3)cc1 [Example 238]
4,3 nM,COC(=O)Nc1cccc(-c2ccnc(N[C@@H]3CCCC[C@H]3N[C@H]3CCCN(c4ccc(C#N)cc4)C3)c2)c1 [Example 200]

# Same assay, conditions: TABLE 7, R2 is Pyridinyl-oxadiazole-CH3; read-out: hY4 CAMP EC50
row,EC50,SMILES
1,5 nM,Cc1nc(-c2ccc(N3CCC[C@](C)(N[C@@H]4CCCC[C@H]4Nc4cc(-c5cccc(C(N)=O)c5)ccn4)C3)cn2)no1 [Example 381]

# Same assay, conditions: human Y4 receptor, cAMP; read-out: hY4 CAMP EC50
row,EC50,SMILES
1,8 nM,CCc1nc(-c2ccc(N3CCC[C@H](N[C@@H]4CCCC[C@H]4Nc4cc(-c5cccc(C(N)=O)c5)ccn4)C3)nc2)no1 [Example 447]
2,2 nM,CNC(=O)c1cccc(-c2cnc(N[C@@H]3CCCC[C@H]3N[C@H]3CCCN(c4cnc(C(F)(F)F)cn4)C3)o2)c1 [Example 429]
3,171 nM,N#Cc1ncc(N2CCC[C@H](N[C@@H]3CCCC[C@H]3Nc3cc(-c4cccc(C(N)=O)c4)ccn3)C2)cn1 [Example 431]
4,2 nM,COC(=O)Nc1cccc(-c2ccnc(N[C@@H]3CCCC[C@H]3N[C@H]3CCCN(c4ccc(-c5ncn(C)n5)cc4)C3)c2)c1 [Example 455]
5,161 nM,Fc1ccccc1-c1cnc(N[C@@H]2CCCC[C@H]2N[C@H]2CCCN(c3cnc(C(F)(F)F)nc3)C2)o1 [Example 402]
6,803 nM,N#Cc1cnc(N2C[C@@H]3C[C@H](N[C@@H]4CCCC[C@H]4Nc4cc(Br)ccn4)[C@H]2C3)nc1 [Example 441]
7,3 nM,Cc1nc2ccc(N3CCC[C@H](N[C@@H]4CCCC[C@H]4Nc4ncc(-c5cccc(C(N)=O)c5)o4)C3)cn2n1 [Example 489]

# Same assay, conditions: human Y4 stable CHO clonal cells, forskolin + IBMX; read-out: NPY4 cAMP HTRF Agonist Assay EC50
row,EC50,SMILES
1,70 nM,"N#Cc1ccnc(N[C@@H]2CCCC[C@H]2N[C@H]2CCCN(c3ccc(C(F)(F)F)cc3)C2)c1 [Example 114, 2-(((1R,2R)-2-(((S)-1-(4-(trifluoromethyl)phenyl)piperidin-3-yl)amino)cyclohexyl)amino)isonicotinonitrile, bis trifluoroacetic acid salt]"
2,45 nM,"FC(F)(F)Oc1ccc(-c2cnc(N[C@@H]3CCCC[C@H]3N[C@H]3CCCN(c4ccc(C(F)(F)F)cc4)C3)o2)cc1 [Example 71, (1R,2R)—N1-(5-(4-(Trifluoromethoxy)phenyl)oxazol-2-yl)-N2-((S)-1-(4-(trifluoromethyl)phenyl)piperidin-3-yl)cyclohexane-1,2-diamine]"
3,49 nM,"Cc1cc(OC(F)(F)F)ccc1-c1cnc(N[C@@H]2CCCC[C@H]2N[C@H]2CCCN(c3ccc([N+](=O)[O-])cc3)C2)o1 [Example 11, (1R,2R)—N1-(5-(2-Methyl-4-(trifluoromethoxy)phenyl)oxazol-2-yl)-N2-((S)-1-(4-nitrophenyl)piperidin-3-yl)cyclohexane-1,2-diamine]"
4,95 nM,"N#Cc1ccc(N2CCC[C@H](N[C@@H]3CCCC[C@H]3Nc3cc(-c4ccccc4)ccn3)C2)cc1 [Example 53, 4-((S)-3-((1R,2R)-2-(4-Phenylpyridin-2-ylamino)cyclohexylamino)piperidin-1-yl)benzonitrile bis-trifluoroacetate]"
5,23 nM,"N#Cc1ccc(N2CCC[C@H](N[C@@H]3CCCC[C@H]3Nc3ncc(-c4ccc(OC(F)(F)F)cc4)o3)C2)cc1 [Example 56, 4-((S)-3-((1R,2R)-2-(5-(4-(Trifluoromethoxy)phenyl)oxazol-2-ylamino)cyclohexylamino)piperidin-1-yl)benzonitrile]"

# Same assay, conditions: second TABLE 1, R2 is Phenyl-CF3; read-out: hY4 CAMP EC50
row,EC50,SMILES
1,319 nM,FC(F)(F)c1ccc(N2CCC[C@H](N[C@@H]3CCCC[C@H]3Nc3ncc(-c4cccc(-c5nnn[nH]5)c4)o3)C2)cc1 [Example 122]
2,20 nM,CC(C)NC(=O)c1cccc(-c2ccnc(N[C@@H]3CCCC[C@H]3N[C@H]3CCCN(c4ccc(C(F)(F)F)cc4)C3)c2)c1 [Example 147]
